This assay has as its system L1210 leukemia ip in BDF1 mice, survival T/C. Kind of assay: NCI In Vivo Anticancer Drug Screen. Data for tumor model L1210 Leukemia (intraperitoneal) in B6D2F1 (BDF1) mice. The note with it: endpoint: mean survival time, higher = longer survival. The essentials:
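Survival endpoint. Drug-treated group vs vehicle group, expressed as T divided by C. Tumor passaged by transplantation.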

[1] abbreviates: dose: 100.0 mg/kg/injection, schedule: Q04DX002 (ip), vehicle: Klucel (hydroxypropylcellulose) (HPC).
[2] abbreviates: dose: 200.0 mg/kg/injection, schedule: Q04DX002 (ip), vehicle: Klucel (hydroxypropylcellulose) (HPC).
[3] abbreviates: dose: 100.0 mg/kg/injection, schedule: Q01DX009 (ip), vehicle: saline with Tween-80.
Where [4] appears, read: dose: 200.0 mg/kg/injection, schedule: Q01DX009 (ip), vehicle: saline with Tween-80.
[5] abbreviates: dose: 50.0 mg/kg/injection, schedule: Q04DX003 (ip), vehicle: saline.
Where [6] appears, read: dose: 100.0 mg/kg/injection, schedule: Q01DX001 (ip), vehicle: carboxymethylcellulose (CMC).
The mark [7] stands for this setting: dose: 200.0 mg/kg/injection, schedule: Q01DX001 (ip), vehicle: carboxymethylcellulose (CMC).
Setting [8] is: dose: 400.0 mg/kg/injection, schedule: Q01DX001 (ip), vehicle: carboxymethylcellulose (CMC).
Where [9] appears, read: dose: 100.0 mg/kg/injection, schedule: Q01DX001 (ip), vehicle: saline.
Setting [10] is: dose: 200.0 mg/kg/injection, schedule: Q01DX001 (ip), vehicle: saline.
[11] abbreviates: dose: 100.0 mg/kg/injection, schedule: Q04DX003 (ip), vehicle: saline with Tween-80.
The mark [12] stands for this setting: dose: 200.0 mg/kg/injection, schedule: Q04DX003 (ip), vehicle: saline with Tween-80.
The mark [13] stands for this setting: dose: 100.0 mg/kg/injection, schedule: Q01DX001 (ip), vehicle: saline with Tween-80.
Where [14] appears, read: dose: 200.0 mg/kg/injection, schedule: Q01DX001 (ip), vehicle: saline with Tween-80.
Where [15] appears, read: dose: 400.0 mg/kg/injection, schedule: Q01DX001 (ip), vehicle: saline with Tween-80.
The mark [16] stands for this setting: dose: 25.0 mg/kg/injection, schedule: Q01DX009 (ip), vehicle: saline.
Where [17] appears, read: dose: 50.0 mg/kg/injection, schedule: Q01DX009 (ip), vehicle: saline.
[18] abbreviates: dose: 100.0 mg/kg/injection, schedule: Q04DX003 (ip), vehicle: Klucel (hydroxypropylcellulose) (HPC).
Where [19] appears, read: dose: 200.0 mg/kg/injection, schedule: Q04DX003 (ip), vehicle: Klucel (hydroxypropylcellulose) (HPC).
Where [20] appears, read: dose: 400.0 mg/kg/injection, schedule: Q04DX003 (ip), vehicle: Klucel (hydroxypropylcellulose) (HPC).
Where [21] appears, read: dose: 100.0 mg/kg/injection, schedule: Q04DX002 (ip), vehicle: saline with Tween-80.
The mark [22] stands for this setting: dose: 200.0 mg/kg/injection, schedule: Q04DX002 (ip), vehicle: saline with Tween-80.
The mark [23] stands for this setting: dose: 400.0 mg/kg/injection, schedule: Q04DX002 (ip), vehicle: saline with Tween-80.

Where “and” joins values, the source holds several entries; their conditions need not be identical. Equal entries are not always repeated. Inconclusive results and toxic doses are left out.

In PubChem BioAssay AID248 (DTP/NCI, 2004) one finds T/C data, which are given here for 19 molecules.

For the molecule `O=NN(CCCl)C(=O)NC1[C@H](O)CCC[C@@H]1O` (stereo not given in full), the T/C (dose: 2.6 mg/kg/injection, schedule: Q01DX001 (ip), vehicle: saline) was 228 % of control; the T/C (dose: 4.0 mg/kg/injection, schedule: Q01DX001 (ip), vehicle: saline) is 385 % of control; the T/C (dose: 6.0 mg/kg/injection, schedule: Q01DX001 (ip), vehicle: saline) is 455 % of control; the T/C (dose: 9.0 mg/kg/injection, schedule: Q01DX001 (ip), vehicle: saline) is 505 % of control; the T/C (dose: 14.0 mg/kg/injection, schedule: Q01DX001 (ip), vehicle: saline) was 340 % of control and 502 % of control; the T/C (dose: 22.0 mg/kg/injection, schedule: Q01DX001 (ip), vehicle: saline) is 256 % of control and 309 % of control.
`CCOc1ccc(N=Cc2ccccc2OC(=O)c2ccccc2)cc1`: the T/C is, setting by setting: under setting [1], 105 % of control; under setting [2], 101 % of control; (dose: 400.0 mg/kg/injection, schedule: Q04DX002 (ip), vehicle: Klucel (hydroxypropylcellulose) (HPC)) 97 % of control.
As for `Nc1ccccc1SC1CC(=O)N(c2ccccc2Cl)C1=O` (stereo not given), the T/C was 98 % of control under setting [3]; 95 % of control under setting [4]; 97 % of control (dose: 400.0 mg/kg/injection, schedule: Q01DX009 (ip), vehicle: saline with Tween-80).
For the molecule `CCOC(=O)/C=C/C(=O)O.[Zn+2]`, the T/C was 96 % of control and 91 % of control (dose: 12.5 mg/kg/injection, schedule: Q04DX003 (ip), vehicle: saline); 96 % of control under setting [5].
Take `CCC1(C(C)C)SC(N)=NC1=O` (stereo not given): the T/C under setting [6] is 102 % of control, the T/C under setting [7] was 94 % of control and the T/C under setting [8] was 96 % of control.
Consider `CCOP(=O)(OCC)c1ccc([N+](=O)[O-])cc1`, for which the T/C is, setting by setting: under setting [9], 87 % of control; under setting [10], 89 % of control.
For `COc1cccc(C[Si](C)C)c1`, the T/C under setting [11] is 104 % of control and the T/C under setting [12] is 107 % of control.
Regarding `CCn1c(=S)[nH]c(/C=N/N(CCO)CCO)c(C)c1=O`, the T/C is 103 % of control under setting [13], 103 % of control under setting [14] and 95 % of control under setting [15].
Turning to `Nc1ncnc2c1ncn2CCCCCl`, the T/C reads like this: (dose: 12.0 mg/kg/injection, schedule: Q04DX003 (ip), vehicle: saline) 93 % of control; (dose: 12.5 mg/kg/injection, schedule: Q01DX009 (ip), vehicle: saline) 119 % of control; under setting [16], 97 % of control; (dose: 25.0 mg/kg/injection, schedule: Q04DX003 (ip), vehicle: saline) 107 % of control; under setting [17], 106 % of control; under setting [5], 93 % of control.
For the molecule `O=C(CC(c1ccccc1)C(C(CC(=O)c1ccccc1)c1ccccc1)[N+](=O)[O-])c1ccccc1` (stereo not given), the T/C by setting is: under setting [6], 92 % of control; under setting [18], 87 % of control; under setting [7], 95 % of control; under setting [19], 89 % of control; under setting [8], 92 % of control; under setting [20], 86 % of control.
Consider `Cc1nn(C2CC(O)C(CO)O2)c(=O)[nH]c1=O` (stereo not given), for which the T/C by setting is: under setting [9], 98 % of control; under setting [10], 95 % of control; (dose: 400.0 mg/kg/injection, schedule: Q01DX001 (ip), vehicle: saline) 93 % of control.
As to `O=[N+]([O-])c1ccc(N2CCOCC2)cc1`, the T/C is 95 % of control under setting [18], 100 % of control under setting [19] and 105 % of control under setting [20].
With `COc1ccc(C=O)c(Br)c1O`, the T/C was 103 % of control (dose: 100.0 mg/kg/injection, schedule: Q01DX009 (ip), vehicle: Klucel (hydroxypropylcellulose) (HPC)); 104 % of control under setting [18]; 97 % of control (dose: 200.0 mg/kg/injection, schedule: Q01DX009 (ip), vehicle: Klucel (hydroxypropylcellulose) (HPC)); 103 % of control under setting [19]; 97 % of control (dose: 400.0 mg/kg/injection, schedule: Q01DX009 (ip), vehicle: Klucel (hydroxypropylcellulose) (HPC)); 101 % of control under setting [20].
Regarding `O=C(Nc1ccccc1)Oc1cccc2cccnc12`, the T/C is 100 % of control (dose: 50.0 mg/kg/injection, schedule: Q04DX003 (ip), vehicle: Klucel (hydroxypropylcellulose) (HPC)); 105 % of control under setting [18]; 97 % of control under setting [19].
For the molecule `CN(C)C1CCC(C=C(C2CCC(CC(=O)O)CC2)C2CCC(CC(=O)O)CC2)CC1` (stereo not given), the T/C under setting [21] was 111 % of control, the T/C under setting [22] is 101 % of control and the T/C under setting [23] is 105 % of control.
With `Nc1ccc(C(=O)N/N=C/c2ccc(Cl)cc2Cl)cc1`, the T/C runs as follows: under setting [1], 93 % of control; under setting [2], 93 % of control.
Consider `CCC(C)C(CCCN1CCOCC1)(CNC(=O)CN(CC)CC)c1cccc2ccccc12` (stereo not given), for which the T/C is 94 % of control under setting [16]; 97 % of control under setting [17]; 91 % of control (dose: 100.0 mg/kg/injection, schedule: Q01DX009 (ip), vehicle: saline); 102 % of control (dose: 100.0 mg/kg/injection, schedule: Q04DX003 (ip), vehicle: saline).
On to `c1ccc(CN2CCCCC2)nc1`, for which the T/C is, setting by setting: (dose: 10.0 mg/kg/injection, schedule: Q01DX009 (ip), vehicle: Klucel (hydroxypropylcellulose) (HPC)) 103 % of control; (dose: 10.0 mg/kg/injection, schedule: Q04DX003 (ip), vehicle: Klucel (hydroxypropylcellulose) (HPC)) 92 % of control; (dose: 20.0 mg/kg/injection, schedule: Q01DX009 (ip), vehicle: Klucel (hydroxypropylcellulose) (HPC)) 91 % of control; (dose: 20.0 mg/kg/injection, schedule: Q04DX003 (ip), vehicle: Klucel (hydroxypropylcellulose) (HPC)) 97 % of control; (dose: 40.0 mg/kg/injection, schedule: Q04DX003 (ip), vehicle: Klucel (hydroxypropylcellulose) (HPC)) 97 % of control.
Turning to `CSc1ccc(OC(=O)Nc2cc(Cl)ccc2C)cc1`, the T/C is, setting by setting: under setting [13], 98 % of control; under setting [3], 95 % of control and 98 % of control; under setting [21], 97 % of control; under setting [11], 96 % of control; under setting [14], 96 % of control; under setting [4], 96 % of control and 103 % of control. Further, the T/C by setting is: under setting [22], 94 % of control and 101 % of control; under setting [12], 98 % of control; under setting [15], 93 % of control; under setting [23], 94 % of control and 105 % of control.
